Measured values as given in publication PMC13083723 (Patterns, 2026).
“And” between values parts separate entries of the source, which are not always exact repeats. Equal values may be shown once. Where a name gives a salt, the structure may show the parent alone. Read-outs that look alike come from different tables or passages of the source.

Key:
SARS-CoV-2 [1] = details: cited from earlier work; for CaCo2 CPE inhibition %: Caco-2, 20 µM
Vero-E6 cells = assay: cells; type: cell-based
A549-ACE2 cells = assay: cells; type: cell-based; details: A549-ACE2, 24 h, read-out: PLD_Effect(%) A549-ACE2
SARS-CoV-2 [2] = details: 10 µM; cited from earlier work
[3] = cited from earlier work
[4] = Chlorocebus sabaeus, Vero C1008, 24 h, read-out: PLD Effect in % 5 µM
[5] = Chlorocebus sabaeus, Vero C1008, 24 h, read-out: PLD Effect in % 10 µM
[6] = Chlorocebus sabaeus, Vero C1008, 24 h, read-out: PLD Effect in % 20 µM
[7] = Chlorocebus sabaeus, Vero C1008, read-out: PLD EC50 µM
[8] = Chlorocebus sabaeus, Vero C1008, 24 h, read-out: PLD_Effect(%) VERO-E6
[9] = Chlorocebus sabaeus, Vero C1008, 24 h; read-out: PLD Effect in % 5 µM
[10] = Chlorocebus sabaeus, Vero C1008, 24 h; read-out: PLD Effect in % 10 µM
[11] = Chlorocebus sabaeus, Vero C1008, 24 h; read-out: PLD Effect in % 20 µM
[12] = value is the negative log10 of mol/L

O=C(CCCN1CCC2(CC1)C(=O)N(Cc1cccc(F)c1)CN2c1ccccc1)c1ccc(F)cc1 [3'-fluorobenzylspiperone, reference compound]
CaCo2 CPE inhibition % (SARS-CoV-2 [1]): 102.38 | CaCo2 CPE assay (active) (SARS-CoV-2 [1]; Caco-2): active | PLD induction assay (active) (Vero-E6 cells): active | activation at 5 µM (Vero-E6 cells; [4]): 61.8% | activation at 10 µM (Vero-E6 cells; [5]): 41.3% | activation at 20 µM (Vero-E6 cells; [6]): 8.92% | EC50 (Vero-E6 cells; [7]): 10.3 µM

C[C@@H](NCCCc1cccc(C(F)(F)F)c1)c1cccc2ccccc12 [AMG-073 HCl, cinacalcet hydrochloride, reference compound]
activation at 10 µM (A549-ACE2 cells): 104% | Vero-E6 CPE inhibition % (SARS-CoV-2 [2]): -0.15 | activation at 10 µM (Vero-E6 cells; [8]): 61.8% | activation at 5 µM (Vero-E6 cells; [9]): 70.8% | activation at 10 µM (Vero-E6 cells; [10]): 79.5% | activation at 20 µM (Vero-E6 cells; [11]): 253% | EC50 (Vero-E6 cells; Chlorocebus sabaeus, Vero C1008; read-out: PLD EC50): 18.6 µM | pchembl_value (AC50) [3]: 6.14 | AC50 ([3]; read-out: AC50 (value)): 730 nM

Cn1ncc(Cl)c1-c1cc(C(=O)N[C@H](CN)Cc2cccc(F)c2)sc1Cl [Afuresertib]
activation at 10 µM (A549-ACE2 cells): 77.1% | activation at 10 µM (Vero-E6 cells; [8]): 69.5% | Ki ([3]; read-out: Ki (value)): 0.08 nM | pchembl_value (IC50) [3, 12]: 10.10 and 8.70 and 8.59 | pchembl_value (Ki) [3, 12]: 10.10

CC(C)c1cnn2c(NCc3ccccc3)cc(NCCCCCCN)nc12 [BS-181]
activation at 10 µM (A549-ACE2 cells): 63.8% | activation at 10 µM (Vero-E6 cells; [8]): 53.6% | IC50 ([3]; read-out: IC50 (value)): 21 nM

CN1CCC(Nc2ncc3ncnc(Nc4ccc(F)c(Cl)c4)c3n2)CC1 [BiBX-1382, reference compound]
Vero-E6 CPE inhibition % (SARS-CoV-2 [2]): 0.28% | activation at 5 µM (Vero-E6 cells; [9]): 85.8% | activation at 10 µM (Vero-E6 cells; [10]): 75.5% | activation at 20 µM (Vero-E6 cells; [11]): -0.64% | EC50 (Vero-E6 cells; [7]): 0.61 µM

Clc1ccc(C(OCCN2CCCCC2)c2ccccc2)cc1 (centres unmarked) [CLOPERASTINE HYDROCHLORIDE]
activation at 10 µM (A549-ACE2 cells): 72.5% | activation at 10 µM (Vero-E6 cells; [8]): 63.9% | pchembl_value (AC50) [3]: 6.48 | AC50 ([3]; read-out: AC50 (value)): 331 nM

CCN(CC)CCOC(=O)C(c1ccccc1)C1CCCCC1 (centres unmarked) [DROFENINE HYDROCHLORIDE]
activation at 10 µM (A549-ACE2 cells): 53.9% | activation at 10 µM (Vero-E6 cells; [8]): 52% | pchembl_value (AC50) [3]: 6.66 and 7.47

CNCC[C@H](Oc1cccc2ccccc12)c1cccs1 [DULOXETINE HYDROCHLORIDE]
activation at 10 µM (A549-ACE2 cells): 91.5% | activation at 10 µM (Vero-E6 cells; [8]): 92.6% | IC50 [3]: 440 nM

CNCCC(Oc1ccc(C(F)(F)F)cc1)c1ccccc1 (centres unmarked) [FLUOXETINE HYDROCHLORIDE]
activation at 10 µM (A549-ACE2 cells): 109% | activation at 10 µM (Vero-E6 cells; [8]): 54.3% | pchembl_value (AC50) [3]: 7.03 and 7.53

OCCN1CCN(CC/C=C2/c3ccccc3Sc3ccc(C(F)(F)F)cc32)CC1 [Flupentixol]
activation at 10 µM (A549-ACE2 cells): 81.9% | activation at 10 µM (Vero-E6 cells; [8]): 83.6% | Log IC50 (value) [3]: -8.65 | pchembl_value (Log IC50) [3]: 8.65

CCCCCCCCC(=O)N[C@H](CN1CCCC1)[C@H](O)c1ccc2c(c1)OCCO2 [Genz-123346 (free base)]
activation at 10 µM (A549-ACE2 cells): 81.6% | activation at 10 µM (Vero-E6 cells; [8]): 63.4% | IC50 ([3]; read-out: IC50 (value)): 9 nM | pchembl_value (IC50) [3, 12]: 8.05

O=S(=O)(NCCNC/C=C/c1ccc(Br)cc1)c1cccc2cnccc12 [H-89]
activation at 10 µM (A549-ACE2 cells): 98.9% | activation at 10 µM (Vero-E6 cells; [8]): 60.8% | IC50 ([3]; read-out: IC50 (value)): 590 nM | Kd ([3]; read-out: Kd (value)): 24 nM | pchembl_value (Kd) [3, 12]: 7.62

CN1CCCN(C(c2ccccc2)c2ccc(Cl)cc2)CC1 (centres unmarked) [Homochlorcyclizine?2HCl]
activation at 10 µM (A549-ACE2 cells): 69.6% | activation at 10 µM (Vero-E6 cells; [8]): 82.5% | pchembl_value (AC50) [3]: 6.64 and 7.14 and 6.83

CN(C(=O)Cc1ccc(Cl)c(Cl)c1)[C@H](CN1CCCC1)c1ccccc1 [ICI-199441]
activation at 10 µM (A549-ACE2 cells): 99.8% | activation at 10 µM (Vero-E6 cells; [8]): 53.5% | IC50 ([3]; read-out: IC50 (value)): 26 nM | pchembl_value (IC50) [3, 12]: 7.58

N[C@H]1CC[C@H](N[C@@H]2C[C@H]2c2ccccc2)CC1 [ORY-1001 (RG-6016) 2HCl]
activation at 10 µM (A549-ACE2 cells): 98.4% | activation at 10 µM (Vero-E6 cells; [8]): 65.7% | Ki [3]: 50 nM | pchembl_value [3]: 9.85 and 7.30 and 7.48

CC(CN1c2ccccc2Sc2ccccc21)N(C)C (centres unmarked) [PROMETHAZINE HYDROCHLORIDE]
activation at 10 µM (A549-ACE2 cells): 96.5% | activation at 10 µM (Vero-E6 cells; [8]): 55.4% | AC50 [3]: 30 nM

CCCOC(C(=O)OC1CCN(C)CC1)(c1ccccc1)c1ccccc1 [Propiverine Hydrochloride]
activation at 10 µM (A549-ACE2 cells): 102% | activation at 10 µM (Vero-E6 cells; [8]): 63.8% | pchembl_value (AC50) [3]: 6.08 and 6.12 | AC50 ([3]; read-out: AC50 (value)): 830 nM and 750 nM

CN1CCN(C(=O)CN[C@@H]2C[C@H]2c2ccc(OCc3ccccc3)cc2)CC1 [RN-1]
activation at 10 µM (A549-ACE2 cells): 70.6% | activation at 10 µM (Vero-E6 cells; [8]): 87.7% | pchembl_value (IC50) [3, 12]: 8.51 and 6.29

C=CCN(C)CCCCCCOc1ccc(C(=O)c2ccc(Br)cc2)c(F)c1 [Ro 48-8071 (fumarate)]
activation at 10 µM (A549-ACE2 cells): 102% | activation at 10 µM (Vero-E6 cells; [8]): 92.9% | Log IC50 (value) [3]: -8.19 | pIC50 (value) [3]: 6.65 | pchembl_value (Log IC50) [3]: 8.19 | pchembl_value (pIC50) [3]: 6.65

CCN(CC)CCO[C@H]1CC[C@@]2(C)C(=CC[C@@H]3[C@@H]2CC[C@]2(C)C(=O)CC[C@@H]32)C1 [U-18666A, reference compound]
CaCo2 CPE inhibition % (SARS-CoV-2 [1]): 77.44% | PLD Effect in % 5 µM (Vero-E6 cells; 5 µM): 84.91% | PLD Effect in % 10 µM (Vero-E6 cells; 10 µM): 98.22% | PLD Effect in % 20 µM (Vero-E6 cells; 20 µM): 112.55% | EC50 (Vero-E6 cells; read-out: PLD EC50): 1.77 µM

COc1cc2c(NC3CCN(C(C)C)CC3)nc(C3CCCCC3)nc2cc1OCCCN1CCCC1 [UNC0638]
activation at 10 µM (A549-ACE2 cells): 112% | activation at 10 µM (Vero-E6 cells; [8]): 60.7% | pchembl_value (type IC50), Histone-lysine N-methyltransferase, H3 lysine-9 specific 3 [3]: 7.26 and 7.82 and 7.92 | pchembl_value (type IC50), Histone-lysine N-methyltransferase, H3 lysine-9 specific 5 [3]: 7.72 | pchembl_value (type Ki), Histone-lysine N-methyltransferase, H3 lysine-9 specific 3 [3]: 8.43 and 7.75 | IC50 ([3]; read-out: IC50 (value), Histone-lysine N-methyltransferase, H3 lysine-9 specific 3): 55 nM and 15 nM | IC50 ([3]; read-out: IC50 (value), Histone-lysine N-methyltransferase, H3 lysine-9 specific 5): 19 nM | IC50 ([3]; read-out: IC50 (value), Lysine-specific histone demethylase 1): 180 nM | Ki ([3]; read-out: Ki (value), Histone-lysine N-methyltransferase, H3 lysine-9 specific 3): 3.7 nM | pchembl_value (type IC50), Lysine-specific histone demethylase 1 [3, 12]: 6.75

Cn1ncc(Cl)c1-c1cc(C(=O)N[C@H](CN)Cc2ccc(F)c(F)c2)oc1Cl [Uprosertib]
activation at 10 µM (A549-ACE2 cells): 92% | activation at 10 µM (Vero-E6 cells; [8]): 82.6% | IC50 ([3]; read-out: IC50 (value)): 339 nM | pchembl_value (IC50) [3, 12]: 6.47

O=C(NCCN1CCC2(CC1)C(=O)NCN2c1cccc(F)c1)c1ccc2ccccc2c1 [VU-0364739]
activation at 10 µM (A549-ACE2 cells): 113% | activation at 10 µM (Vero-E6 cells; [8]): 55.1% | IC50 ([3]; read-out: IC50 (value)): 20 nM | pchembl_value (IC50) [3, 12]: 7.70

Cc1cccc(C)c1NC(=O)CN1CCN(CCCC(c2ccc(F)cc2)c2ccc(F)cc2)CC1 [lidoflazine, reference compound]
activation at 10 µM (A549-ACE2 cells): 90.9% | Vero-E6 CPE inhibition % (SARS-CoV-2 [2]): 0.5% | activation at 10 µM (Vero-E6 cells; [8]): 52.6% | activation at 5 µM (Vero-E6 cells; [9]): 65.3% | activation at 10 µM (Vero-E6 cells; [10]): 80.2% | activation at 20 µM (Vero-E6 cells; [11]): 129% | EC50 (Vero-E6 cells; [7]): 5.51 µM

OC(c1cc(C(F)(F)F)nc2c(C(F)(F)F)cccc12)C1CCCCN1 (centres unmarked) [mefloquine hydrochloride, reference compound]
Vero-E6 CPE inhibition % (SARS-CoV-2 [2]): -0.32% | activation at 5 µM (Vero-E6 cells; [4]): 102% | activation at 10 µM (Vero-E6 cells; [5]): 188% | activation at 20 µM (Vero-E6 cells; [6]): 174% | EC50 (Vero-E6 cells; [7]): 1.48 µM

CCN(CC)CCCC(C)Nc1c2ccc(Cl)cc2nc2ccc(OC)cc12 (centres unmarked) [quinacrine hydrochloride, reference compound]
Vero-E6 CPE inhibition % (SARS-CoV-2 [2]): -0.23% | activation at 5 µM (Vero-E6 cells; [9]): 145% | activation at 10 µM (Vero-E6 cells; [10]): 141% | activation at 20 µM (Vero-E6 cells; [11]): -13.2% | EC50 (Vero-E6 cells; [7]): 1.55 µM

C[C@@H]1CN(CCCn2c3ccccc3c3ccccc32)C[C@H](C)N1 [rimcazole]
activation at 10 µM (A549-ACE2 cells): 109% | activation at 10 µM (Vero-E6 cells; [8]): 99.9% | Log IC50 (value) [3]: -6.23 | pchembl_value (Log IC50) [3]: 6.23 | Ki ([3]; read-out: Ki (value)): 908 nM | pchembl_value (Ki) [3, 12]: 6.04
